# From patent US20120129212A1, “METHOD OF MONITORING ERYTHROPOIESIS” (VERTEX PHARMACEUTICALS INCORPORATED, priority 2009, published 2012)
# System: erythropoiesis (nascent erythrocytes)
# Test: Cobalt chloride-induced erythropoiesis in eGFP mice (FACS of erythrocyte eGFP fluorescence)
# Format: in vivo, hemizygous BALB/c mice
# Conditions: for effect on erythropoiesis (right-shift of eGFP fluorescence curves): subcutaneous injection, six mice
# Protocol: Mice were anesthetized with isofluorane and a minute incision was made into the lateral tail vein. Approximately 1 μl of tail vein blood was diluted into 0.5 ml of sterile saline containing 3 mM EDTA and stored at 4° C. Fluorescence activated cell sorting (FACS) was performed within 6 hours of blood collection on a FACSAria (BD Biosciences, San Jose, Calif.) flow cytometer. A 488 nm laser was used to excite the eGFP and a 530/30 nm band-pass filter and a 502 nm long-pass filter were used to monitor emissions. Forward and side scatter were used to gate for single erythrocytes, with approximately one hundred thousand events measured per blood sample. Median Fluorescence Intensity (MFI) for each erythrocyte population was analyzed using FlowJo 7.2.5 software (Tree Star, Inc. Ashland, Oreg.).
# Tail vein blood (1 μl) was collected daily from one-year old hemizygous BALB/c mice starting on the day before cobalt chloride treatment (Day −1) and continuing through three days after treatment (Day 3) as described in Example 1, On Day 0, six one-year old BALB/c (hemizygous) mice were subcutaneously injected with 0.1 mL saline containing 4 μmols of cobalt chloride. FACS was performed immediately following the blood draw, and data were analyzed with FlowJo software as described in Example 1.
structure (smiles),measurement,setting,value
[Cl][Co][Cl] [cobalt chloride],increase in the number of nascent erythrocytes,"4 μmols cobalt chloride s.c. on Day 0, Day 2 vs Day −1, statistically significant",10 fold
same,effect on erythropoiesis (right-shift of eGFP fluorescence curves),,stimulates erythropoiesis in vivo
same,effect on erythropoiesis (right-shift of eGFP fluorescence curves),listed as Cobalt chloride,stimulated erythropoiesis in each of the six mice tested
